Laboratory results taken from patent US20100063127A1, “Antioxidant Properties of Tryptophan from Human Milk” (priority 2008, published 2010).

Test system: TNFα
Assay: Effect on TNFα expression, cell based immunoassay in RAW 264.7 cells
Design: species or system mouse
Description: This was carried out using a cell based immunoassay using mouse monocyte/macrophage cells (RAW 264.7; ATCC American Tissue Culture Collection). The experiment was done in triplicates. The data were analyzed by t-test. […] Based on this tryptophan is an ant-inflammatory amino acid.

In the case of `N[C@@H](Cc1c[nH]c2ccccc12)C(=O)O` [Tryptophan], the TNFα (Tryptophan 50 μg/ml, control Medium + LPS 1 μg/ml 6156, triplicates) is reported as 4869 pg/mL and the “TNFα, treated value versus control value (t-test)” value (p<0.05) is reported as “significant difference”.
